Experiment: xn = mol fraction of the nth substance listed

C1CN2CN3CCN(CN1C3)C2 + [2H]O[2H]
viscosity [mPa·s], 101 kPa
Conditions	x1 = 0.004058	x1 = 0.008015	x1 = 0.01192	x1 = 0.01581	x1 = 0.02009
293.15 K	1.263	1.307	1.389	1.485	1.602
298.15 K	1.128	1.174	1.233	1.315	1.426
300.15 K	1.018	1.066	1.131	1.225	1.352
305.15 K	0.918	0.975	1.042	1.133	1.251

CC(Cl)(Cl)Cl + c1ccccc1
303.15 K, 101 kPa
Conditions	viscosity [mPa·s]
x1 = 0.1318	0.5946
x1 = 0.2306	0.614
x1 = 0.3381	0.6341
x1 = 0.4104	0.6461
x1 = 0.4894	0.6588
x1 = 0.5844	0.6709
x1 = 0.6716	0.6831
x1 = 0.7484	0.6926
x1 = 0.8648	0.706
x1 = 0.9221	0.7138

CC(O)c1ccccc1 (stereo unspecified) + c1ccccc1
293.15 K, 101.32 kPa
Conditions	viscosity [mPa·s]
x1 = 0.01616	0.6575
x1 = 0.05419	0.708
x1 = 0.09606	0.7832
x1 = 0.1306	0.85
x1 = 0.1766	0.9508

CCCCCBr + c1ccccc1
308.15 K, 101 kPa
Conditions	viscosity [mPa·s]
x2 = 0.0961	0.6279
x2 = 0.2061	0.6028
x2 = 0.2972	0.5854
x2 = 0.3978	0.5636
x2 = 0.4978	0.5452
x2 = 0.5868	0.5316
x2 = 0.7022	0.5149
x2 = 0.8752	0.5028
x2 = 0.9275	0.503

O=CO + c1ccncc1
viscosity [mPa·s], 101 kPa
Conditions	298.15 K	323.15 K
x1 = 0.1605	0.9921	0.7018
x1 = 0.3041	1.235	0.8411
x1 = 0.4426	1.783	1.154
x1 = 0.5254	2.414	1.515
x1 = 0.6438	4.255	2.347
x1 = 0.7065	5.476	2.846
x1 = 0.7478	6.13	3.143
x1 = 0.7762	6.161	3.202
x1 = 0.8243	5.312	2.873
x1 = 0.8859	3.778	2.192
x1 = 0.9381	2.657	1.616
